Data on 19 compounds can be found in patent publication US9637473B2, “Acrylamide derivatives as antimalarial agents” (priority 2013, dated 2017).

Structures can show the parent of a compound that is named as a salt.

The term IC50 denotes the concentration that gives 50% inhibition. A higher IC50 goes with weaker potency in that assay.

The first assay relates to P. Falciparum NF54. The experiment in a line: Plasmodium falciparum in vitro assay ([3H]-hypoxanthine incorporation). It counts as cell-based. The conditions noted are these: P. Falciparum NF54, erythrocytic stages in human red blood cells, 50% human serum. An outline of the steps: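 This in vitro antimalarial assay used P. falciparum erythrocytic stages cultured in human erythrocytes and measured [3H]-hypoxanthine incorporation. Radioactivity on the dried filters, placed in plastic foil with 10 mL scintillation fluid, was counted in a Betaplate liquid scintillation counter. Sigmoidal inhibition curves built in Microsoft Excel gave the IC50.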
For `CN1CCC(N2CCC(N(Cc3ccc(N(C)c4ccncc4)cc3)C(=O)/C=C/c3ccc(C(F)(F)F)cc3)C(F)C2)CC1` (racemic) [Example 78, (±)-(E)-N-(cis-3-fluoro-1′-methyl-[1,4′-bipiperidin]-4-yl)-N-(4-(methyl(pyridin-4-yl)amino)benzyl)-3-(4-(trifluoromethyl)phenyl)acrylamide], inhibition was half-maximal at 12 nM (IC50).

The same assay, now with this note: Plasmodium falciparum, Erythrocyte, P. Falciparum NF54, erythrocytic stages in human red blood cells, 50% human serum.
`Cc1nn(C)c(C)c1/C=C/C(=O)N(Cc1ccc(N(C)c2ccncc2)cc1)C1CCN(Cc2ccccc2)CC1` [Example 165, (E)-N-(1-Benzyl-piperidin-4-yl)-N-[4-(methyl-pyridin-4-yl-amino)-benzyl]-3-(1,3,5-trimethyl-1H-pyrazol-4-yl)-acrylamide] yielded an IC50 of 192 nM.
For `CC(C)CCN1CCC[C@H](N(Cc2ccc(N(C)c3ccncc3)cc2)C(=O)/C=C/c2ccc(C(F)(F)F)cc2)C1` [Example 61, (S,E)-N-(1-isopentylpiperidin-3-yl)-N-(4-(methyl(pyridin-4-yl)amino)benzyl)-3-(4-(trifluoromethyl)phenyl)acrylamide], the concentration for half-maximal inhibition (IC50) was 82 nM. Against the preceding compound, the IC50 is about 2.3-fold lower.
`O=C(/C=C/c1ccc(C(F)(F)F)cc1)N(Cc1ccc(-c2ccccn2)cc1)C1CCN(C2CCCC2)CC1` [Example 198, (E)-N-(1-Cyclopentyl-piperidin-4-yl)-N-(4-pyridin-2-yl-benzyl)-3-(4-trifluoromethyl-phenyl)-acrylamide] showed a half-maximal inhibitory concentration (IC50) of 355 nM.
Regarding `Cc1cc(Nc2ccc(CN(C(=O)/C=C/c3ccc(Cl)cc3)C3CCN(C4CC4)CC3)cc2)ccn1` [Example 210, (E)-3-(4-Chloro-phenyl)-N-(1-cyclopropyl-piperidin-4-yl)-N-[4-(2-methyl-pyridin-4-ylamino)-benzyl]-acrylamide], the IC50 is 174 nM.
Compound `CN(c1ccncc1)c1ccc(CN(C(=O)/C=C/c2ccc(C(F)(F)F)cc2)C2CCN(Cc3ccc(Cl)c(Cl)c3)CC2)cc1` [Example 11, (E)-N-[1-(3,4-Dichloro-benzyl)-piperidin-4-yl]-N-[4-(methyl-pyridin-4-yl-amino)-benzyl]-3-(4-trifluoromethyl-phenyl)-acrylamide] showed an IC50 of 84 nM.
Consider `CC(C)Oc1ccc(/C=C/C(=O)N(Cc2ccc(N(C)c3ccncc3)cc2)C2CCN(Cc3ccccc3)CC2)cc1` [Example 143, (E)-N-(1-Benzyl-piperidin-4-yl)-3-(4-isopropoxy-phenyl)-N-[4-(methyl-pyridin-4-yl-amino)-benzyl]-acrylamide], for which half-maximal inhibition (IC50) required 102 nM. This IC50 and that of the compound before are within 1.5-fold of each other.
Compound `CC(C)N1CCC(N(Cc2cncc(N(C)c3ccncc3)c2)C(=O)/C=C/c2ccc(C(F)(F)F)cc2)CC1` [Example 133, (E)-N-(1-Isopropyl-piperidin-4-yl)-N-[5-(methyl-pyridin-4-yl-amino)-pyridin-3-ylmethyl]-3-(4-trifluoromethyl-phenyl)-acrylamide formate] returned an IC50 of 69 nM.
Consider `CC(C)CCN1CCC2(CCC(N(Cc3ccc(N(C)c4ccncc4)cc3)C(=O)/C=C/c3ccc(C(F)(F)F)cc3)CC2)CC1` [Example 69, (E)-N-(3-isopentyl-3-azaspiro[5.5]undecan-9-yl)-N-(4-(methyl(pyridin-4-yl)amino)benzyl)-3-(4-(trifluoromethyl)phenyl)acrylamide], for which the midpoint of inhibition, the IC50, lay at 41 nM.
Turning to `Cn1ccc(-c2ccc(CN(C(=O)/C=C/c3ccc(C(F)(F)F)cc3)C3CCN(C4CCCC4)CC3)cc2)n1` [Example 202, (E)-N-(1-Cyclopentyl-piperidin-4-yl)-N-[4-(1-methyl-1H-pyrazol-3-yl)-benzyl]-3-(4-trifluoromethyl-phenyl)-acrylamide], the IC50 was found to be 434 nM.
Turning to `Cc1cc(Nc2ccc(CN(CCN(C)C)C(=O)/C=C/c3ccc(C(F)(F)F)cc3)cc2)ccn1` [Example 176, (E)-N-(2-Dimethylamino-ethyl)-N-[4-(2-methyl-pyridin-4-ylamino)-benzyl]-3-(4-trifluoromethyl-phenyl)-acrylamide], half-maximal inhibition (IC50) required 58 nM.
For `CC(C)N1CCC[C@H](N(Cc2ccc(N(C)c3ccncc3)cc2)C(=O)/C=C/c2ccc(C(F)(F)F)cc2)C1` [Example 83, (E)-N-((S)-1-Isopropyl-piperidin-3-yl)-N-[4-(methyl-pyridin-4-yl-amino)-benzyl]-3-(4-trifluoromethyl-phenyl)-acrylamide], inhibition was half-maximal at 120 nM (IC50).
With `CN1CCC(N2CCC(N(Cc3ccc(N(C)c4ccncc4)nc3)C(=O)/C=C/c3ccc(C(F)(F)F)cc3)CC2)CC1` [Example 112, (E)-N-(1′-Methyl-[1,4′]bipiperidinyl-4-yl)-N-[6-(methyl-pyridin-4-yl-amino)-pyridin-3-ylmethyl]-3-(4-trifluoromethyl-phenyl)-acrylamide], the IC50 is 39 nM.
On to `Cc1cc(Nc2ccc(CN(C(=O)/C=C/c3ccc(C(F)(F)F)cc3)[C@H]3CCCN(C(C)C)C3)cn2)ccn1` [Example 120, (E)-N-((S)-1-Isopropyl-piperidin-3-yl)-N-[6-(2-methyl-pyridin-4-ylamino)-pyridin-3-ylmethyl]-3-(4-trifluoromethyl-phenyl)-acrylamide], for which the midpoint of inhibition, the IC50, lay at 90 nM.
On the same count and under the same terms, the result for `CC(C)N1CCC(N(Cc2cncc(N(C)c3ccccn3)c2)C(=O)/C=C/c2ccc(C(F)(F)F)cc2)CC1` [Example 140, (E)-N-(1-Isopropyl-piperidin-4-yl)-N-[5-(methyl-pyridin-2-yl-amino)-pyridin-3-ylmethyl]-3-(4-trifluoromethyl-phenyl)-acrylamide formate] reads 354 nM.
Compound `Cc1cc(Nc2ccc(CN(C(=O)/C=C/c3ccc(C(F)(F)F)cc3)C3CCN(C4CCCC4)CC3)nc2)ccn1` [Example 170, (E)-N-(1-Cyclopentyl-piperidin-4-yl)-N-[5-(2-methyl-pyridin-4-ylamino)-pyridin-2-ylmethyl]-3-(4-trifluoromethyl-phenyl)-acrylamide] came in with an IC50 of 67 nM.
In turn, `CN1CCC(N2CCCC(N(Cc3ccc(N(C)c4ccncc4)cc3)C(=O)/C=C/c3ccc(C(F)(F)F)cc3)CC2)CC1` (racemic) [Example 57, (±)-(E)-N-(4-(methyl(pyridin-4-yl)amino)benzyl)-N-(1-(1-methylpiperidin-4-yl)azepan-4-yl)-3-(4-(trifluoromethyl)phenyl)acrylamide] had an IC50 of 18 nM.
`CN(c1ccncc1)c1ccc(CN(C(=O)/C=C/c2ccc(C(C)(C)C)cc2)C2CCN(Cc3ccccc3)CC2)cc1` [Example 144, (E)-N-(1-Benzyl-piperidin-4-yl)-3-(4-tert-butyl-phenyl)-N-[4-(methyl-pyridin-4-yl-amino)-benzyl]-acrylamide] yielded an IC50 of 174 nM.
Turning to `Cc1cc(Nc2ccc(CN(C(=O)/C=C/c3ccc(C(F)(F)F)cc3)C3CCN(C4CCN(C)CC4)CC3)cn2)ccn1` [Example 111, (E)-N-(1′-Methyl-[1,4′]bipiperidinyl-4-yl)-N-[6-(2-methyl-pyridin-4-ylamino)-pyridin-3-ylmethyl]-3-(4-trifluoromethyl-phenyl)-acrylamide], the IC50 came out at 165 nM.
